Experimental data taken from patent publication US11999727B2 (Tango Therapeutics, Inc., priority 2020, dated 2024).

How the values were obtained:
[1] = system: HAP1 MTAP-intact cell line; experiment: SDMA in-cell western assay, HAP1 MTAP-intact; type: cell-based; conditions: Homo sapiens, HAP1, SDMA in-cell western, HAP1 MTAP-intact; read-out: MTAP HAP1 intact IC50
In short: (§1)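 IC50 values come from SDMA signal quantified by in-cell western in two HAP1 lines, one with native MTAP levels and one lacking MTAP.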

PRMT5 [2] = target: T1, PRMT5 (Homo sapiens, UniProt O14744); experiment: PRMT5 biochemical IC50 assay with no cofactor; conditions: PRMT5, no cofactor; read-out: No Cofactor/rel IC50
T1 construct: purchased Viva (custom protein)
T1 sequence (O14744 whole entry): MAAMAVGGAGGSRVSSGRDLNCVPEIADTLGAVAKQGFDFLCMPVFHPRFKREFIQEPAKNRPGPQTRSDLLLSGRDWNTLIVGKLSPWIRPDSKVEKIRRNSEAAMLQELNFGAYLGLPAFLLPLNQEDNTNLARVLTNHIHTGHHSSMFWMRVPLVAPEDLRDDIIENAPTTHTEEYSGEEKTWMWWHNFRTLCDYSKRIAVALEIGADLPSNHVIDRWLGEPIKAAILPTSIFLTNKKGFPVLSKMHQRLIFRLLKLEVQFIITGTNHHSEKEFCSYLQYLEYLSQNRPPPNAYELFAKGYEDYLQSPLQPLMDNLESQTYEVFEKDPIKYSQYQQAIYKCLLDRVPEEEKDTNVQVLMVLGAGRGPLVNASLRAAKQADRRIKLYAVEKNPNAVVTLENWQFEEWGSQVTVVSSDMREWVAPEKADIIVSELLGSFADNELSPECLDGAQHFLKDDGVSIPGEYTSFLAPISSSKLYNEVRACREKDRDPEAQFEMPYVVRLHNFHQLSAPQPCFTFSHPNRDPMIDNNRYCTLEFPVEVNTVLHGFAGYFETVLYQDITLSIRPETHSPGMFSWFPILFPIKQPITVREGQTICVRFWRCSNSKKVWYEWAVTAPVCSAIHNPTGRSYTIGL
T1 sequence (Q9BQA1 whole entry partner): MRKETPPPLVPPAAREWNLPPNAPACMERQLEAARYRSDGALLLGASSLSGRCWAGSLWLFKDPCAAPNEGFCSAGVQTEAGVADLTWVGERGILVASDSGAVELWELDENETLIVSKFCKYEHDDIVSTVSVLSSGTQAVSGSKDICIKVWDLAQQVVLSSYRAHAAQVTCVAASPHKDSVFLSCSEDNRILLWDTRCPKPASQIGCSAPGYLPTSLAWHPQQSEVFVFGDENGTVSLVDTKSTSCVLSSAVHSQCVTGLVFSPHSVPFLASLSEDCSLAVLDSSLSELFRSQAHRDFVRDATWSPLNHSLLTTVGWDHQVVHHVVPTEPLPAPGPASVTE
Text: Table 1 indicates IC50 values (μM) against PRMT5 for exemplary compounds in the presence of SAM as cofactor, with no cofactor, and with MTA as cofactor, respectively (columns 4-6). […] Ki values can be calculated from the IC50 values as described in the Examples section. As detailed in the Examples section, for the assay performed in the presence of SAM, IC50=Ki×1.5 (Ki=IC50/1.5).

PRMT5 [3] = target: T1, PRMT5; experiment: PRMT5 biochemical IC50 assay with MTA as cofactor; conditions: PRMT5, MTA as cofactor; read-out: MTA IC50
[4] = system: HAP1 MTAP-deleted cell line; experiment: Viability assay, MTAP-deleted cell line; type: cell-based; conditions: Homo sapiens, HAP1, viability assay, HAP1 MTAP-deleted; read-out: HAP1 MTAP deleted viability
Text: Table 1 additionally indicates IC50 values in a viability assay for the MTAP-deleted cell line (column 10), indicating the effect of treatment with compound on cell survival.

PRMT5 [5] = target: T1, PRMT5; experiment: PRMT5 biochemical IC50 assay with SAM as cofactor; conditions: PRMT5, SAM as cofactor; read-out: SAM IC50
[6] = system: HAP1 MTAP-deleted cell line; experiment: SDMA in-cell western assay, HAP1 MTAP-deleted; type: cell-based; conditions: for IC50: Homo sapiens, HAP1, SDMA in-cell western, HAP1 MTAP-deleted, read-out: HAP1 MTAP deleted IC50; for MTAP intact/deleted ratio: IC50 ratio HAP1 MTAP-intact / HAP1 MTAP-deleted, SDMA in-cell western
In short: as §1

Compound | IC50 [1] [nM] | IC50 (PRMT5 [2]) [nM] | IC50 (PRMT5 [3]) [nM] | IC50 (PRMT5 [5]) [nM] | IC50 [6] [nM] | IC50 [4] [nM] | MTAP intact/deleted ratio [6]
C[C@@H]1CC[C@@H](c2cc(F)c(F)c(Cl)c2)N(C(=O)C(=O)Nc2cncc(C(N)=O)c2)C1 (single isomer, unassigned) [Compound 834] | > 1000 | 50 to 500 | < 50 | 50 to 500 | 100 to 1000 | 1000 to 10000 | A (an IC50 ratio greater than or equal to 10 fold)
CCc1cc(NC(=O)C(=O)N2C[C@H](C)CC[C@H]2c2ccc(C(=O)NC)s2)cnc1N (single isomer, unassigned) [Compound 835] | > 1000 | > 500 | > 500 | > 500 | > 1000 | > 10000 | C (an IC50 ratio of less than 3 fold)
CCc1cc(NC(=O)C(=O)N2C[C@H](C)CC[C@H]2c2ccc(C(N)=O)s2)cnc1N (single isomer, unassigned) [Compound 838] | 100 to 1000 | < 50 | < 50 | 50 to 500 | < 100 | < 1000 | A (an IC50 ratio greater than or equal to 10 fold)
CNC(=O)c1ccc([C@H]2CC[C@H](C)CN2C(=O)C(=O)Nc2cncc(C(N)=O)c2)s1 (single isomer, unassigned) [Compound 839] | > 1000 | > 500 | > 500 | > 500 | > 1000 | > 10000 | B (an IC50 ratio greater than or equal to 3 fold but lower than 10 fold)
COc1ncc(NC(=O)C(=O)N2C[C@@H](C)CC[C@@H]2c2ccc(-c3cncs3)cc2)cc1C(N)=O (single isomer, unassigned) [Compound 842, 2-methoxy-5-(2-(5-methyl-2-(4-(thiazol-5-yl)phenyl)piperidin-1-yl)-2-oxoacetamido)nicotinamide] | > 1000 | > 500 | > 500 | > 500 | > 1000 | > 10000 | B (an IC50 ratio greater than or equal to 3 fold but lower than 10 fold)
CNC(=O)c1ccc([C@@H]2CC[C@@H](C)CN2C(=O)C(=O)Nc2cnc(OC)c(C(N)=O)c2)s1 (single isomer, unassigned) [Compound 843] | > 1000 | > 500 | > 500 | > 500 | > 1000 | > 10000 | B (an IC50 ratio greater than or equal to 3 fold but lower than 10 fold)
Cc1cc(NC(=O)C(=O)N2C[C@H](C)CC[C@H]2c2cc(F)c(F)c(Cl)c2)cnc1N (single isomer, unassigned) [Compound 847] | > 1000 | > 500 | > 500 | > 500 | > 1000 | > 10000 | C (an IC50 ratio of less than 3 fold)
Cc1cc(NC(=O)C(=O)N2C[C@H](C)CC[C@H]2c2ccc(N)nc2)cnc1N (single isomer, unassigned) [Compound 848] | 100 to 1000 | < 50 | < 50 | 50 to 500 | < 100 | < 1000 | A (an IC50 ratio greater than or equal to 10 fold)
CNC(=O)c1ccc([C@@H]2CC[C@@H](C)CN2C(=O)C(=O)Nc2cnc(N)c(C)c2)s1 (single isomer, unassigned) [Compound 849] | > 1000 | > 500 | > 500 | > 500 | > 1000 | > 10000 | C (an IC50 ratio of less than 3 fold)
COc1ncc(NC(=O)C(=O)N2C[C@@H](C)CC[C@@H]2c2ccc(NS(C)(=O)=O)cc2)cc1C(N)=O (single isomer, unassigned) [Compound 850] | > 1000 | > 500 | > 500 | > 500 | > 1000 | > 10000 | C (an IC50 ratio of less than 3 fold)
CCc1cc(NC(=O)C(=O)N2C[C@@H](C)CC[C@@H]2c2ccc(N)nc2)cnc1N (single isomer, unassigned) [Compound 851] | 100 to 1000 | < 50 | < 50 | 50 to 500 | < 100 | < 1000 | A (an IC50 ratio greater than or equal to 10 fold)
CNc1nc2cc([C@H]3CC[C@H](C)CN3C(=O)C(=O)Nc3cnc(N)c(C)c3)ccc2s1 (single isomer, unassigned) [Compound 852] | 100 to 1000 | < 50 | < 50 | 50 to 500 | < 100 | < 1000 | A (an IC50 ratio greater than or equal to 10 fold)
CNc1nc2cc([C@@H]3CC[C@@H](C)CN3C(=O)C(=O)Nc3cnc(N)c(C)c3)ccc2s1 (single isomer, unassigned) [Compound 855] | > 1000 | > 500 | > 500 | > 500 | > 1000 | > 10000 | C (an IC50 ratio of less than 3 fold)
Cc1cc(NC(=O)C(=O)N2C[C@@H](C)CC[C@@H]2c2cc(F)c(F)c(Cl)c2)cnc1N (single isomer, unassigned) [Compound 857] | > 1000 | 50 to 500 | < 50 | 50 to 500 | < 100 | 1000 to 10000 | A (an IC50 ratio greater than or equal to 10 fold)

More lines, main results first:

IC50 [1] [nM] | IC50 (PRMT5 [2]) [nM] | IC50 (PRMT5 [3]) [nM] | IC50 (PRMT5 [5]) [nM] | IC50 [6] [nM] | Compound | IC50 [4] [nM] | MTAP intact/deleted ratio [6]
100 to 1000 | 50 to 500 | < 50 | 50 to 500 | < 100 | CNC(=O)c1ccc([C@H]2CC[C@H](C)CN2C(=O)C(=O)Nc2cnc(OC)c(C(N)=O)c2)s1 (single isomer, unassigned) [Compound 833] | < 1000 | A (an IC50 ratio greater than or equal to 10 fold)
> 1000 | < 50 | < 50 | 50 to 500 | < 100 | COc1ncc(NC(=O)C(=O)N2C[C@@H](C)CC[C@@H]2c2ccc(C(N)=O)s2)cc1C(N)=O (single isomer, unassigned) [Compound 837] | < 1000 | A (an IC50 ratio greater than or equal to 10 fold)
100 to 1000 | < 50 | < 50 | 50 to 500 | < 100 | CCc1cc(NC(=O)C(=O)N2C[C@@H](C)CC[C@@H]2c2ccc(C(=O)NC)s2)cnc1N (single isomer, unassigned) [Compound 840] | < 1000 | A (an IC50 ratio greater than or equal to 10 fold)
100 to 1000 | < 50 | < 50 | 50 to 500 | < 100 | CCc1cc(NC(=O)C(=O)N2C[C@H](C)CC[C@H]2c2ccc(-c3cncs3)cc2)cnc1N (single isomer, unassigned) [Compound 841, N-(6-amino-5-ethylpyridin-3-yl)-2-(5-methyl-2-(4-(thiazol-5-yl)phenyl)piperidin-1-yl)-2-oxoacetamide] | < 1000 | A (an IC50 ratio greater than or equal to 10 fold)
> 1000 | > 500 | > 500 | > 500 | > 1000 | COc1ncc(NC(=O)C(=O)N2C[C@H](C)CC[C@H]2c2ccc(C(N)=O)s2)cc1C(N)=O (single isomer, unassigned) [Compound 844] | > 10000 | C (an IC50 ratio of less than 3 fold)
> 1000 | > 500 | > 500 | > 500 | > 1000 | CCc1cc(NC(=O)C(=O)N2C[C@@H](C)CC[C@@H]2c2ccc(C(N)=O)s2)cnc1N (single isomer, unassigned) [Compound 845] | > 10000 | B (an IC50 ratio greater than or equal to 3 fold but lower than 10 fold)
> 1000 | > 500 | > 500 | > 500 | > 1000 | CCc1cc(NC(=O)C(=O)N2C[C@H](C)CC[C@H]2c2ccc(N)nc2)cnc1N (single isomer, unassigned) [Compound 856] | > 10000 | B (an IC50 ratio greater than or equal to 3 fold but lower than 10 fold)
> 1000 | < 50 | < 50 | 50 to 500 | < 100 | COc1ncc(NC(=O)C(=O)N2C[C@H](C)CC[C@H]2c2ccc(NS(C)(=O)=O)cc2)cc1C(N)=O (single isomer, unassigned) [Compound 858] | 1000 to 10000 | A (an IC50 ratio greater than or equal to 10 fold)
